Activity calls are given as the source filed them. No cut-off for these calls is given here.
Experiments:
MV4-11 = experiment: cells; details: Homo sapiens, MV4-11, 72 h
Description: Antiproliferative activity against human MV4-11 cells assessed as reduction in cell viability incubated for 72 hrs by CCK8 assay

MOLM-13 = experiment: cells; details: Homo sapiens, MOLM-13, 72 h
Description: Antiproliferative activity against human MOLM-13 cells assessed as reduction in cell viability incubated for 72 hrs by CCK8 assay

[1] = target: T1, Receptor-type tyrosine-protein kinase FLT3 (Homo sapiens, UniProt P36888)
T1 sequence (P36888 whole entry): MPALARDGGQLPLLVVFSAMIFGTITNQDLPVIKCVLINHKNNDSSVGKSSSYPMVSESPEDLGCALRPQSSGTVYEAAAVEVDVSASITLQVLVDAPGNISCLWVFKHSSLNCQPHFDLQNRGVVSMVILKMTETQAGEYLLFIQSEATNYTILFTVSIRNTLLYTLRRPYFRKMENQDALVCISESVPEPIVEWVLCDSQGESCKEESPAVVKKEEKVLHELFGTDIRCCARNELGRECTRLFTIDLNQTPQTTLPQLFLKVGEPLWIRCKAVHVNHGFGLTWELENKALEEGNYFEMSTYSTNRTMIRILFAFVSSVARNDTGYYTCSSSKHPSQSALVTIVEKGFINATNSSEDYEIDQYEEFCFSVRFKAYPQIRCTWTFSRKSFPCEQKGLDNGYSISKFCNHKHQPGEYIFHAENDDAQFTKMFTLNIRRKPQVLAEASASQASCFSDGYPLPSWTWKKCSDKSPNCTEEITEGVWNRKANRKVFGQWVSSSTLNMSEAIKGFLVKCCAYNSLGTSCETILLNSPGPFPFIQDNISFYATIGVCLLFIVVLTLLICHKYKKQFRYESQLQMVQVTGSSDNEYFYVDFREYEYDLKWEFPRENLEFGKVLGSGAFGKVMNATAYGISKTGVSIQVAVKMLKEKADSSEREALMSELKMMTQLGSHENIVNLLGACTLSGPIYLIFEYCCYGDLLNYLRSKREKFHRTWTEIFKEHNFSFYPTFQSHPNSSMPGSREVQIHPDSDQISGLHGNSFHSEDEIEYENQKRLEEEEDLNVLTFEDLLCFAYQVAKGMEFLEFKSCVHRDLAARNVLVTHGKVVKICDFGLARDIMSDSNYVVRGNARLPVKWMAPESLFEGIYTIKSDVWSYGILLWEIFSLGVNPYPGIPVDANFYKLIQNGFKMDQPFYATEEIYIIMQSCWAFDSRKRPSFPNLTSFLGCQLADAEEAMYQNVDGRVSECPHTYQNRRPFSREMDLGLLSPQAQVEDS
Description: Inhibition of FLT3 (unknown origin) using Poly (Glu,Tyr) 4:1 as substrate incubated for 1 hr in presence of ATP by ELISA

[2] = target: Receptor-type tyrosine-protein kinase FLT3 (Homo sapiens, UniProt P36888, ITD)
Description: Inhibition of FLT3-ITD mutant (unknown origin) using Poly (Glu,Tyr) 4:1 as substrate incubated for 1 hr in presence of ATP by ELISA

[3] = target: Receptor-type tyrosine-protein kinase FLT3 (Homo sapiens) (UniProt P36888); experiment: Inhibition of FLT3 in human MV4-11 cells assessed as suppression of Erk phosphorylation incubated for 2 hrs by Western blot analysis; format: cell-based; details: dose 0.1-10 nM
[4] = target: Receptor-type tyrosine-protein kinase FLT3 (Homo sapiens) (UniProt P36888); experiment: Inhibition of FLT3 phosphorylation in human MV4-11 cells at 0.1 to 10 nM incubated for 2 hrs by Western blot analysis; format: cell-based; details: dose 0.1-10 nM
[5] = target: Receptor-type tyrosine-protein kinase FLT3 (Homo sapiens) (UniProt P36888); details: MV4-11, dose 1.1 nM, time 2.0 hrs
[6] = target: Receptor-type tyrosine-protein kinase FLT3 (Homo sapiens, UniProt P36888, D835Y)
[7] = target: Receptor-type tyrosine-protein kinase FLT3 (Homo sapiens) (UniProt P36888); details: MV4-11, dose 1.1 nM, time 2.0 hrs; remark: listed apart in the source

| SMILES | IC50 (MV4-11) [nM] | IC50 (MOLM-13) [nM] | IC50 [1] [nM] | IC50 [2] [nM] | inhibition [3] | inhibition [4] | inhibition [5] [%] | IC50 [6] [nM] | inhibition [7] [%] |
| --- | --- | --- | --- | --- | --- | --- | --- | --- | --- |
| CN(c1ccn2ncc(C(=O)Nc3ccc(N4CCOCC4)cc3C(F)(F)F)c2n1)[C@@H]1CCCNC1 | > 1000 | > 1000 | 160 | > 1000 | – | – | – | – | – |
| COc1cc(N2CCN(S(C)(=O)=O)CC2)ccc1NC(=O)c1cnn2ccc(N3CCC[C@@H](N)C3)nc12 | 26.5 | 43.7 | 3.9 | 18.7 | – | – | – | – | – |
| CC(C)Oc1cc(N2CCOCC2)ccc1NC(=O)c1cnn2ccc(N[C@@H]3CCCNC3)nc12 | 34.8 | 35.9 | 32.9 | 197 | – | – | – | – | – |
| COc1cc(N(C)CCN(C)C)ccc1NC(=O)c1cnn2ccc(N[C@@H]3CCCNC3)nc12 | 10 | 23.5 | 3.5 | 37.5 | – | – | – | – | – |
| CCOc1cc(N2CCOCC2)ccc1NC(=O)c1cnn2ccc(N[C@@H]3CCCNC3)nc12 | 9.8 | 11.4 | 2.7 | 4.1 | – | – | – | – | – |
| O=C(Nc1ccc(N2CCOCC2)cc1C(F)(F)F)c1cnn2ccc(NC3CNC3)nc12 | 29.5 | 157 | 39.9 | 30.7 | – | – | – | – | – |
| COc1cc(N2CCOCC2)ccc1NC(=O)c1cnn2ccc(N3CCC[C@@H](N)C3)nc12 | 11.2 | 28.3 | 3.5 | 1.3 | – | – | – | – | – |
| O=C(Nc1ccc(N2CCOCC2)cc1C(F)(F)F)c1cnn2ccc(N[C@H]3CN4CCC3CC4)nc12 | 5.13 | 26.3 | 7 | 11.7 | – | – | – | – | – |
| CN1CCC[C@@H](Nc2ccn3ncc(C(=O)Nc4ccc(N5CCOCC5)cc4C(F)(F)F)c3n2)C1 | 23.4 | 262 | 264 | 181 | – | – | – | – | – |
| O=C(Nc1ccc(N2CCOCC2)cc1C(F)(F)F)c1cnn2ccc(NC3CCNCC3)nc12 | 28.5 | 155 | 16.5 | 6.7 | – | – | – | – | – |
| O=C(Nc1ccc(N2CCOCC2)cc1C(F)(F)F)c1cnn2ccc(NC3CCCCC3)nc12 | > 1000 | > 1000 | > 1000 | > 1000 | – | – | – | – | – |
| COc1cc(N2CCNCC2)ccc1NC(=O)c1cnn2ccc(N3CCC[C@@H](N)C3)nc12 | 46 | 249 | 3.8 | 1.9 | – | – | – | – | – |
| NC(=O)c1cc(N2CCOCC2)ccc1NC(=O)c1cnn2ccc(N[C@@H]3CCCNC3)nc12 | 172 | > 1000 | 8.7 | 7.2 | – | – | – | – | – |
| O=C(Nc1ccc(N2CCOCC2)cc1)c1cnn2ccc(N[C@@H]3CCCNC3)nc12 | 23.5 | 37.1 | 37.7 | 21.6 | – | – | – | – | – |
| COc1cc(N2CCCCC2)ccc1NC(=O)c1cnn2ccc(N[C@@H]3CCCNC3)nc12 | 9.8 | 13 | 8 | 69.5 | – | – | – | – | – |
| O=C(Nc1ccc(N2CCOCC2)cc1C(F)(F)F)c1cnn2ccc(N[C@H]3CCCNC3)nc12 | 12.9 | 111 | > 1000 | 296 | – | – | – | – | – |
| COc1cc(N2CCCC2)ccc1NC(=O)c1cnn2ccc(N[C@@H]3CCCNC3)nc12 | 11.7 | 19.5 | 7.1 | 83.1 | – | – | – | – | – |

The remaining lines, values ahead:

| IC50 (MV4-11) [nM] | IC50 (MOLM-13) [nM] | IC50 [1] [nM] | IC50 [2] [nM] | inhibition [3] | inhibition [4] | inhibition [5] [%] | IC50 [6] [nM] | inhibition [7] [%] | SMILES |
| --- | --- | --- | --- | --- | --- | --- | --- | --- | --- |
| 0.6 | 3.7 | 2.6 | 2 | – | – | – | – | – | N#Cc1cc(N2CCOCC2)ccc1NC(=O)c1cnn2ccc(N[C@@H]3CCCNC3)nc12 |
| 9.8 | 16.5 | 25.1 | 110 | – | – | – | – | – | O=C(Nc1ccc(N2CCOCC2)cc1F)c1cnn2ccc(N[C@@H]3CCCNC3)nc12 |
| 1.3 | 1 | 0.4 | 1 | Dose-dependent effect | Active | 100 | 0.3 | 100 | O=C(Nc1ccc(N2CCOCC2)cc1C(F)(F)F)c1cnn2ccc(N[C@@H]3CCCNC3)nc12 |
| 5.3 | 19.4 | 38.2 | 144 | – | – | – | – | – | COc1ccccc1NC(=O)c1cnn2ccc(N[C@@H]3CCCNC3)nc12 |
| 7.66 | 17.4 | 1.4 | 1.2 | – | – | – | – | – | COc1cc(N2CCN(C(C)=O)CC2)ccc1NC(=O)c1cnn2ccc(N[C@@H]3CCCNC3)nc12 |
| 6.3 | 10.3 | 2.9 | 18 | – | – | – | – | – | COc1cc(N2CCC(N3CCOCC3)CC2)ccc1NC(=O)c1cnn2ccc(N[C@@H]3CCCNC3)nc12 |
| 7.5 | 13.8 | 1.4 | 1.1 | – | – | – | – | – | Cc1cc(N2CCOCC2)ccc1NC(=O)c1cnn2ccc(N[C@@H]3CCCNC3)nc12 |
| < 0.32 | 0.6 | 0.4 | 0.8 | – | – | – | 0.4 | – | O=C(Nc1ccc(N2CCOCC2)cc1Br)c1cnn2ccc(N[C@@H]3CCCNC3)nc12 |
| < 0.32 | 2.5 | 1.2 | 1.6 | – | – | – | – | – | CSc1cc(N2CCOCC2)ccc1NC(=O)c1cnn2ccc(N[C@@H]3CCCNC3)nc12 |
| 7 | 17 | 12 | 3.7 | – | – | – | – | – | COc1cc(N2CCN(C)CC2)ccc1NC(=O)c1cnn2ccc(N3CCC[C@@H](N)C3)nc12 |
| 1 | 10.3 | 2.7 | 3.1 | – | – | – | – | – | COc1cc(N2CCOCC2)ccc1NC(=O)c1cnn2ccc(N[C@@H]3CCCNC3)nc12 |
| < 0.32 | 1.4 | 0.8 | 0.5 | – | – | – | – | – | O=C(Nc1ccc(N2CCOCC2)cc1C(F)(F)F)c1cnn2ccc(N[C@@H]3CCCCNC3)nc12 |
| 8 | 16.3 | 5.5 | 96.7 | – | – | – | – | – | O=C(Nc1ccc(N2CCOCC2)cc1C(F)(F)F)c1cnn2ccc(N[C@@H]3CCNC3)nc12 |
